Laboratory results published in US7902373B2 (Pfizer Inc, priority 2006, dated 2011).

Each compound was assayed against human recombinant H-PGDS (Homo sapiens, UniProt O60760) (assay: Fluorescence intensity h-PGDS TBA enzyme assay). Conditions: Examples up to 622 (and 3a, 3b).
human recombinant H-PGDS, sequence (O60760 whole entry): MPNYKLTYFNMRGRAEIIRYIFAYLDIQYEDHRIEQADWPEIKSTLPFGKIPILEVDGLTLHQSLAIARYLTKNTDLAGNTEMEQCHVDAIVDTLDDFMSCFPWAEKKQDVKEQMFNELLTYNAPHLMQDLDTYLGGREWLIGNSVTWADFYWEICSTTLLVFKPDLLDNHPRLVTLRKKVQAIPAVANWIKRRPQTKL
Type: biochemical
`O=C(NC1CCN(Cc2ccc3c(n2)NCCC3)CC1)c1ccc(-c2cccc(F)c2)nc1` [Example 465, 6-(3-Fluorophenyl)-N-[1-(5,6,7,8-tetrahydro-18-naphthyridin-2-ylmethyl)piperidin-4-yl]nicotinamide] showed an IC50 of 0.881 nM.
`CCOC(=O)Cn1cc(CN2CCC(NC(=O)c3ccc(-c4cccc(F)c4)nc3)CC2)cn1` [Example 466, Ethyl (4-{[4-({[6-(3-fluorophenyl)pyridin-3-yl]carbonyl}amino)piperidin-1-yl]methyl}-1H-pyrazol-1-yl)acetate] was tested, and the IC50 was 1.49 nM.
`COc1cc(CN2CCC(NC(=O)c3ccc(-c4cccc(F)c4)nc3)CC2)c(F)cc1Cl` [Example 467, N-[1-(4-Chloro-2-fluoro-5-methoxybenzyl)piperidin-4-yl]-6-(3-fluorophenyl)nicotinamide] gave an IC50 of 0.257 nM.
For `O=C(NC1CCN(Cc2ccc(=O)[nH]n2)CC1)c1ccc(-c2cccc(F)c2)nc1` [Example 469, 6-(3-Fluorophenyl)-N-{1-[(6-oxo-1,6-dihydropyridazin-3-yl)methyl]piperidin-4-yl}nicotinamide], the IC50 was 0.855 nM.
`CC(C)c1nnc2ccc(CN3CCC(NC(=O)c4ccc(-c5cccc(F)c5)nc4)CC3)cn12` [Example 470, 6-(3-Fluorophenyl)-N-{1-[(3-isopropyl[1,2,4]triazolo[4,3-a]pyridin-6-yl)methyl]piperidin-4-yl}nicotinamide] was tested, and the IC50 was 4.14 nM.
`COc1ccc2nccc(CN3CCC(NC(=O)c4ccc(-c5cccc(F)c5)nc4)CC3)c2c1` [Example 471, 6-(3-Fluorophenyl)-N-{1-[(6-methoxyquinolin-4-yl)methyl]piperidin-4-yl}nicotinamide] showed an IC50 of 2.68 nM.
For `CC(C)(O)c1ccc(CN2CCC(NC(=O)c3ccc(-c4cccc(F)c4)nc3)CC2)cn1` [Example 472, 6-(3-Fluorophenyl)-N-(1-{[6-(1-hydroxy-1-methylethyl)pyridin-3-yl]methyl}piperidin-4-yl)nicotinamide], the IC50 was 0.491 nM.
Work on `Cn1ccc(-c2ccc(CN3CCC(NC(=O)c4ccc(-c5cccc(F)c5)nc4)CC3)cc2)n1` [Example 473, 6-(3-Fluorophenyl)-N-{1-[4-(1-methyl-1H-pyrazol-3-yl)benzyl]piperidin-4-yl}nicotinamide] yielded an IC50 of 2.36 nM.
`Cn1nccc1-c1ccc(CN2CCC(NC(=O)c3ccc(-c4cccc(F)c4)nc3)CC2)cc1` [Example 474, 6-(3-Fluorophenyl)-N-{1-[4-(1-methyl-1H-pyrazol-5-yl)benzyl]piperidin-4-yl}nicotinamide] gave an IC50 of 1.44 nM.
`O=C(NC1CCN(Cc2ccc(Br)cn2)CC1)c1ccc(-c2cccc(F)c2)nc1` [Example 475, N-{1-[(5-Bromopyridin-2-yl)methyl]piperidin-4-yl}-6-(3-fluorophenyl)nicotinamide] gave an IC50 of 4.07 nM.
In the case of `O=C(NC1CCN(Cc2ccc(CF)nc2)CC1)c1ccc(-c2cccc(F)c2)nc1` [Example 476, N-(1-{[6-(Fluoromethyl)pyridin-3-yl]methyl}piperidin-4-yl)-6-(3-fluorophenyl)nicotinamide], the IC50 is reported as 0.935 nM.
Work on `Cc1ccc(-c2nc(CN3CCC(NC(=O)c4ccc(-c5cccc(F)c5)nc4)CC3)n(C)n2)nn1` [Example 477, 6-(3-Fluorophenyl)-N-(1-{[1-methyl-3-(6-methylpyridazin-3-yl)-1H-1,2,4-triazol-5-yl]methyl}piperidin-4-yl)nicotinamide] yielded an IC50 of 4.04 nM.
Compound `Cn1nc(-c2ccccn2)nc1CN1CCC(NC(=O)c2ccc(-c3cccc(F)c3)nc2)CC1` [Example 478, 6-(3-Fluorophenyl)-N-{1-[(1-methyl-3-pyridin-2-yl-1H-1,2,4-triazol-5-yl)methyl]piperidin-4-yl}nicotinamide] has an IC50 of 2.01 nM.
`Cc1nn(C)c(N2CCCOCC2)c1CN1CCC(NC(=O)c2ccc(-c3cccc(F)c3)nc2)CC1` [Example 479, N-(1-{[1,3-Dimethyl-5-(1,4-oxazepan-4-yl)-1H-pyrazol-4-yl]methyl}piperidin-4-yl)-6-(3-fluorophenyl)nicotinamide] showed an IC50 of 0.421 nM.
Compound `Cn1nccc1-c1nc(CN2CCC(NC(=O)c3ccc(-c4cccc(F)c4)nc3)CC2)nn1C` [Example 480, 6-(3-Fluorophenyl)-N-(1-{[1-methyl-5-(1-methyl-1H-pyrazol-5-yl)-1H-1,2,4-triazol-3-yl]methyl}piperidin-4-yl)nicotinamide] has an IC50 of 2.69 nM.
`Cn1nc(-c2ncccn2)nc1CN1CCC(NC(=O)c2ccc(-c3cccc(F)c3)nc2)CC1` [Example 481, 6-(3-Fluorophenyl)-N-{1-[(1-methyl-3-pyrimidin-2-yl-1H-1,2,4-triazol-5-yl)methyl]piperidin-4-yl}nicotinamide] showed an IC50 of 2.45 nM.
`Cn1nc(CN2CCC(NC(=O)c3ccc(-c4cccc(F)c4)nc3)CC2)nc1-c1ccccc1F` [Example 482, 6-(3-Fluorophenyl)-N-(1-{[5-(2-fluorophenyl)-1-methyl-1H-1,2,4-triazol-3-yl]methyl}piperidin-4-yl)nicotinamide] showed an IC50 of 2.39 nM.
With `Cn1nc(-c2cccc(F)c2)nc1CN1CCC(NC(=O)c2ccc(-c3cccc(F)c3)nc2)CC1` [Example 483, 6-(3-Fluorophenyl)-N-(1-{[3-(3-fluorophenyl)-1-methyl-1H-1,2,4-triazol-5-yl]methyl}piperidin-4-yl)nicotinamide] the IC50 was 3.58 nM.
In the case of `Cn1nc(CN2CCC(NC(=O)c3ccc(-c4cccc(F)c4)nc3)CC2)nc1-c1ccc(F)cc1` [Example 484, 6-(3-Fluorophenyl)-N-(1-{[5-(4-fluorophenyl)-1-methyl-1H-1,2,4-triazol-3-yl]methyl}piperidin-4-yl)nicotinamide], the IC50 is reported as 2.68 nM.
`Cn1nc(CN2CCC(NC(=O)c3ccc(-c4cccc(F)c4)nc3)CC2)nc1-c1ccccn1` [Example 485, 6-(3-Fluorophenyl)-N-{1-[(1-methyl-5-pyridin-2-yl-1H-1,2,4-triazol-3-yl)methyl]piperidin-4-yl}nicotinamide] showed an IC50 of 2.77 nM.
`O=C(NC1CCN(Cc2ccc(OC(F)F)c(OC3CC3)c2)CC1)c1ccc(-c2cccc(F)c2)nc1` [Example 486, N-{1-[3-(Cyclopropyloxy)-4-(difluoromethoxy)benzyl]piperidin-4-yl}-6-(3-fluorophenyl)nicotinamide] gave an IC50 of 2.32 nM.
For `COc1c(C)cnc(CN2CCC(NC(=O)c3ccc(-c4cccc(F)c4)nc3)CC2)c1C` [Example 487], the IC50 was 0.372 nM.
`O=C(NC1CCN(Cc2ccc(-c3ccn[nH]3)cc2)CC1)c1ccc(-c2cccc(F)c2)nc1` [Example 488, 6-(3-Fluorophenyl)-N-{1-[4-(1H-pyrazol-5-yl)benzyl]piperidin-4-yl}nicotinamide] showed an IC50 of 0.489 nM.
Compound `Nc1ncncc1CN1CCC(NC(=O)c2ccc(-c3cccc(F)c3)nc2)CC1` [Example 489, N-{1-[(4-Aminopyrimidin-5-yl)methyl]piperidin-4-yl}-6-(3-fluorophenyl)nicotinamide] has an IC50 of 1.18 nM.
With `O=C(NC1CCN(Cc2cccc3c2OCC3)CC1)c1ccc(-c2cccc(F)c2)nc1` [Example 490, N-[1-(2,3-Dihydro-1-benzofuran-7-ylmethyl)piperidin-4-yl]-6-(3-fluorophenyl)nicotinamide] the IC50 was 0.601 nM.
For `COc1ccc2nccc(CN3CCC(NC(=O)c4ccc(-c5cccc(F)c5)nc4)CC3)c2n1` [Example 491, 6-(3-Fluorophenyl)-N-{1-[(6-methoxy-1,5-naphthyridin-4-yl)methyl]piperidin-4-yl}nicotinamide], the IC50 was 2.4 nM.
Work on `O=C(NC1CCN(Cc2ccc(-n3ccnn3)cc2)CC1)c1ccc(-c2cccc(F)c2)nc1` [Example 492, 6-(3-Fluorophenyl)-N-{1-[4-(1H-1,2,3-triazol-1-yl)benzyl]piperidin-4-yl}nicotinamide] yielded an IC50 of 0.285 nM.
Work on `O=C(NC1CCN(Cc2ccc(-n3nccn3)cc2)CC1)c1ccc(-c2cccc(F)c2)nc1` [Example 493, 6-(3-Fluorophenyl)-N-{1-[4-(2H-1,2,3-triazol-2-yl)benzyl]piperidin-4-yl}nicotinamide] yielded an IC50 of 1.1 nM.
Compound `COc1cc(CN2CCC(NC(=O)c3ccc(-c4cccc(F)c4)nc3)CC2)cc2c1OCCO2` [Example 494, 6-(3-Fluorophenyl)-N-{1-[(8-methoxy-2,3-dihydro-1,4-benzodioxin-6-yl)methyl]piperidin-4-yl}nicotinamide] has an IC50 of 0.817 nM.
Compound `Cn1nncc1CN1CCC(NC(=O)c2ccc(-c3cccc(F)c3)nc2)CC1` [Example 495, 6-(3-Fluorophenyl)-N-{1-[(1-methyl-1H-1,2,3-triazol-5-yl)methyl]piperidin-4-yl}nicotinamide] has an IC50 of 0.409 nM.
`COc1cc(CN2CCC(NC(=O)c3ccc(-c4cccc(F)c4)nc3)CC2)ccc1C` [Example 496, 6-(3-Fluorophenyl)-N-[1-(3-methoxy-4-methylbenzyl)piperidin-4-yl]nicotinamide] gave an IC50 of 0.569 nM.
For `O=C1COc2ccc(CN3CCC(NC(=O)c4ccc(-c5cccc(F)c5)nc4)CC3)cc2N1` [Example 497, 6-(3-Fluorophenyl)-N-{1-[(3-oxo-3,4-dihydro-2H-14-benzoxazin-6-yl)methyl]piperidin-4-yl}nicotinamide], the IC50 was 1.06 nM.
With `Cn1ncc(CN2CCC(NC(=O)c3ccc(-c4cccc(F)c4)nc3)CC2)c1-c1ccccc1` [Example 498, 6-(3-Fluorophenyl)-N-{1-[(1-methyl-5-phenyl-1H-pyrazol-4-yl)methyl]piperidin-4-yl}nicotinamide] the IC50 was 0.3 nM.
`COc1ccc(-c2c(CN3CCC(NC(=O)c4ccc(-c5cccc(F)c5)nc4)CC3)cnn2C)cc1` [Example 499, 6-(3-Fluorophenyl)-N-(1-{[5-(4-methoxyphenyl)-1-methyl-1H-pyrazol-4-yl]methyl}piperidin-4-yl)nicotinamide] gave an IC50 of 1.64 nM.
With `Cn1ncc(CN2CCC(NC(=O)c3ccc(-c4cccc(F)c4)nc3)CC2)c1-c1ccc(F)cc1` [Example 500, 6-(3-Fluorophenyl)-N-(1-{[5-(4-fluorophenyl)-1-methyl-1H-pyrazol-4-yl]methyl}piperidin-4-yl)nicotinamide] the IC50 was 0.633 nM.
In the case of `CS(=O)(=O)Nc1cccc(CN2CCC(NC(=O)c3ccc(-c4cccc(F)c4)nc3)CC2)c1` [Example 501, 6-(3-Fluorophenyl)-N-(1-{3-[(methylsulfonyl)amino]benzyl}piperidin-4-yl)nicotinamide], the IC50 is reported as 0.432 nM.
With `O=C(NC1CCN(Cc2ccc3cc[nH]c3c2)CC1)c1ccc(-c2cccc(F)c2)nc1` [Example 502, 6-(3-Fluorophenyl)-N-[1-(1H-indol-6-ylmethyl)piperidin-4-yl]nicotinamide] the IC50 was 1.99 nM.
